Test results published in paper PMC6746686, “Physicochemical Profiling of Baicalin Along with the Development and Characterization of Cyclodextrin Inclusion Complexes” (AAPS PharmSciTech, 2019).
Converted amounts (≈) assume the structure as drawn. Like-named read-outs stand apart in the source and are kept apart here.

Key:
[1] = NMR-pH titrations (acid dissociation constants, species distribution); type: physicochemical; settings: for pKa: aqueous solution, 95% (v/v) H2O and 5% (v/v) D2O; for mole fraction of the monoanionic form ([H2B]−): calculated from pKa values
Procedure: NMR-pH titrations were performed on a Varian VNMRS spectrometer (600 MHz for ^1H). Spectra were recorded at 25°C. Titrations were carried out in solutions containing 95% (v/v) H2O and 5% (v/v) D2O, with the addition of small amounts of 0.1 M HCl and NaOH. One molar NaOH and solid NaOH crystals were also used to achieve highly basic pH values. The ionic strength was kept at 0.15 M by the presence of NaCl. The concentration of baicalin and its methyl ester was 1.0 × 10^−3 M and ascorbic acid was used in large excess (5.0 × 10^−3 M) to prevent the oxidation of the studied catechol molecules in alkaline solutions. The sample volume was 600 μl. NMR spectra were referenced to the internal standard DSS (sodium 3-(trimethylsilyl)-1-propanesulfonate). The water signal was suppressed by presaturation. Spectra were processed with VNMRj 3.2a software. pH values were read on a Metrohm 2.780.0010 precision pH meter with a 6.0258.600 Unitrode glass Pt 1000 electrode (Metrohm AG, Herisau, Switzerland). The pH-potentiometric system was calibrated using pH 1.68, 4.01, 6.87, 9.18 aqueous buffer solutions. In highly basic solutions, pH was measured by NMR-pH indicator molecules as well to avoid the uncertainty of the glass electrode pH-meter readings in such solutions [24]. The concentration of these pH indicators was 1.0 mM. For the analysis of NMR titration curves of proton chemical shifts versus pH, the software Origin Pro 8 (OriginLab Corp., Northampton,MA, USA) was used.
In baicalin, there are 12 protons connected to carbon atoms, but in ^1H NMR spectra, only the singlets of H8 and H3 on ring A and the doublet of the aromatic H2’,6′ protons can be easily assigned, while the other aromatic protons occur in complex spectrum of multiplets. The protons of the monosaccharide unit overlap with each other and with the signals of the antioxidant ascorbic acid. The suppression of the large water signal also interferes with the observation of certain NMR signals. Thus, during the NMR-pH titration, we followed the above-mentioned three chemical shift signal sets.
Since protonation processes are instantaneous on the NMR chemical shift time scale, the observed chemical shift (δ^obsd) of a certain nucleus can be expressed as a weighted average of chemical shifts of the non-, mono-, di- and triprotonated forms of baicalin (B):2 δ^obsd=δB^3‐xB^3‐+δHB^2‐xHB^2‐+δH2B^−xH2B^−+δH3BxH3B where weighting factors are mole fractions that can be expressed in terms of stepwise protonation macroconstants and the actual hydrogen ion concentration. For example, xH2B^− is:3 xH2B^−=K1K2H^+^2/1+K1H^++K1K2H^+^2+K1K2K3H^+^3
Combining and rearranging Eqs. (2) and (3) yield Eq. (4) that can be directly fitted to the ^1H-NMR titration curve of each nucleus observed.4 δ^obsd=δB^3‐+δHB^2‐K1H^++δH2B^−K1K2H^+^2+δH3BK1K2K3H^+^3/1+K1H^++K1K2H^+^2+K1K2K3H^+^3
The logarithms of the obtained protonation constants correspond to the negative logarithms of dissociation constants, namely pKa1 = logK3, pKa2 = logK2 and pKa3 = logK1 [28].

[2] = Distribution coefficient measurements by the stir-flask method (octanol/water); type: physicochemical
Procedure: The distribution coefficients were calculated from the absorbance of the molecules before and after partitioning at several octanol/water phase ratios. For the pH control, a pH 7.40 phosphate buffer and a standardized HCl solution were used, with an ionic strength of 0.15 M in both cases. The pH of the phosphate buffer was measured using a Metrohm 6.0204.100 combined pH glass electrode and a Metrohm 780 pH meter. The concentration change of baicalin was followed by UV-absorbance measurements. […] Then, the two phases were intensively stirred for 2 h in thermostated double-walled glass cells at constant temperature (25 ± 0.1°C). After separation of the equilibrated phases and centrifugation, the concentration of baicalin was determined by UV spectrophotometry (Perkin-Elmer Lambda 15) at several values at 279 nm (λmax). The distribution coefficients were calculated from the absorbance of baicalin before and after partitioning. […]
For baicalin, the pH-dependent distribution coefficient is the sum of four products:5 DpH=ΣxiPi=xB^3‐PB^3‐+xHB^2‐PHB^2‐+xH2B^−PH2B^−+xH3BPH3B where xi mole fractions are the pH-dependent quantities, while Pi parameters are the pH-independent ones. […]
The mole fraction data can be calculated similarly as shown in Eq. (3); thus, the partition coefficient of the anionic form can be obtained. […]

[3] = Thermodynamic solubility by saturation shake-flask method; type: physicochemical; settings: 37°C
Procedure: A total of 0.94 g of 1 M HCl and 0.35 g of NaCl were diluted and dissolved to 1000 ml with distilled water and used as simulated gastric fluid (SGF) with pH 1.2. This medium served as solvent for the measurement of intrinsic solubility of baicalin.
A total of 250 ml of 0.2 M […] and 77 ml of 0.2 M NaOH were homogenized and diluted to 1000 ml with distilled water. This medium served as simulated intestinal fluid (SIF) with pH 6.8.
Blank buffer of FaSSGF pH 1.6 (1.99 g NaCl dissolved in 900 ml distilled water, adjusted the pH to 1.6 with 1 M HCl and filled to 1000 ml with distilled water) and phosphate buffer pH 6.5 (0.42 g NaOH pellets + 3.95 g NaH2PO4 monohydrate + 6.19 g NaCl dissolved in 900 ml distilled water, adjusted the pH to 6.5 with either 1 M NaOH or 1 M HCl and filled to 1000 ml with distilled water) were prepared as stock solutions.
FaSSGF was produced from blank buffer of FaSSGF pH 1.6, which was completed by 0.08 mM sodium taurocholate, 0.02 mM lecithin, 0.1 mg/ml pepsin and has osmolality of 120 ± 2.5 mOsmol/kg. To obtain the FaSSIF medium, 100 ml of blank phosphate buffer (pH 6.5) was made up by 3 mM sodium taurocholate and 0.75 mM lecithin. FaSSIF has an osmolality of 270 ± 10 mOsmol/kg.
The thermodynamic solubility of baicalin in various media was determined by saturation shake-flask method based on the method of Baka et al.. Briefly, 10 mg of baicalin was added to 5 ml of each solvent in sealed vials. All samples were stirred (approx. 500 rpm) and thermostated (IKA RT-5 power heatable magnetic stirrer, IKA Work Inc., USA) at 37 ± 0.5°C for 24 h allowing it to achieve thermodynamic equilibrium. After this period, 24 h of sedimentation cycle was adopted without stirring at 37 ± 0.5°C. To improve the efficacy of phase-separation, the saturated supernatant of samples was centrifuged at 14,000 rpm for 15 min (Herolab MicroGen 16, Herolab GmbH, Wiesloch, Germany). The aliquots (250 μl) taken for solubility experiments were suitably diluted with blank buffers and the absorbance was measured at λ = 316 nm by UV spectroscopy (Agilent 8453 UV-Visible Spectrophotometer, Agilent Technologies Ltd., USA). […] Ideally, λmax selected for the analysis of drug should not show any interference due to solvents and excipients present in the dissolution medium. […] In the solubility study, thus, λmax 316 nm was selected for the quantification of baicalin. […] All experiments were repeated three times and results were calculated from the linear calibration curve of baicalin in each media. Data are expressed as mean ± SD (μg/ml).

[4] = Stability in alkaline solution observed by NMR; type: physicochemical
Excerpt: Baicalin has three acidic functional moieties, one carboxyl and two phenolic hydroxyl groups. Proton transfer processes can be regarded either from the aspect of dissociation or association. Because of the acidic nature of baicalin, these processes will be characterized here in terms of acid dissociation constants (Ka). Carboxylic acids are typically orders of magnitude stronger than phenols. The determination of baicalin dissociation constants is hampered by its poor water solubility and sensitivity of oxidation of the catechol structure on its A ring. The acid/base properties of baicalin have been investigated earlier, resulting in pKa1, pKa2 and pKa3 values of 5.05, 7.6 and 10.1, respectively. […] We decided to undertake the characterization of baicalin by NMR-pH titrations, where the molecule was protected from oxidation by the antioxidant ascorbic acid up to pH ≈ 13.
NMR-pH titrations were performed on a Varian VNMRS spectrometer (600 MHz for ^1H). Spectra were recorded at 25°C. […] Spectra were processed with VNMRj 3.2a software. pH values were read on a Metrohm 2.780.0010 precision pH meter with a 6.0258.600 Unitrode glass Pt 1000 electrode (Metrohm AG, Herisau, Switzerland). […] In highly basic solutions, pH was measured by NMR-pH indicator molecules as well to avoid the uncertainty of the glass electrode pH-meter readings in such solutions [24]. […]

[5] = design: method as in PMID 19722585; settings: cited from earlier work
[6] = design: method as in PMID 19722585; settings: reported as "1.27 (pH 7)"; cited from earlier work
[7] = design: method as in PMID 26579386; settings: cited from earlier work
[8] = design: method as in PMID 16107266; settings: cited from earlier work
[9] = NMR-pH titration, 25°C, ionic strength 0.15 M, ascorbic acid as antioxidant
[10] = UV-pH titration, called highly dubious by the authors

**Q.** What does the source list for COC(=O)[C@H]1O[C@@H](Oc2cc3oc(-c4ccccc4)cc(=O)c3c(O)c2O)[C@H](O)[C@@H](O)[C@@H]1O [Baicalin methyl ester]?
**A.** pKa1 (acid dissociation constant) [1, 9]: 8.78; pKa2 (acid dissociation constant) [1, 9]: > 14

**Q.** Which pKa ([1]; NMR-pH titration, 25°C, ionic strength 0.15 M, ascorbic acid as antioxidant, read-out: pKa1 (acid dissociation constant)) does the source give for O=C(O)[C@H]1O[C@@H](Oc2cc3oc(-c4ccccc4)cc(=O)c3c(O)c2O)[C@H](O)[C@@H](O)[C@@H]1O [Baicalin, 7-D-glucuronic acid-5,6-dihydroxyflavone] here?
**A.** 4.21

**Q.** And the pKa ([1]; NMR-pH titration, 25°C, ionic strength 0.15 M, ascorbic acid as antioxidant, read-out: pKa2 (acid dissociation constant))?
**A.** 8.56

**Q.** And the pKa ([1]; NMR-pH titration, 25°C, ionic strength 0.15 M, ascorbic acid as antioxidant, read-out: pKa3 (acid dissociation constant))?
**A.** > 14

**Q.** And the “mole fraction of the monoanionic form ([H2B]−)” value ([1]; pH 6.8 SIF)?
**A.** 98.0%

**Q.** What about the “relative concentration of the dianionic form (HB2−)” value ([1]; pH 7.40, calculated from pKa values) of the same compound?
**A.** 6.5%

**Q.** And the “mole fraction of the monoanionic form ([H2B]−)” value ([1]; pH of blood (pH 7.40))?
**A.** 93.5%

**Q.** And the “difference between the lipophilicity of the neutral and the anionic form” value [2]?
**A.** 2.56 log unit

**Q.** And the logD at 2 h ([2]; standardized 0.15 M HCl solution, 25°C, SD in brackets, read-out: log D (characterizes the log P of the neutral form))?
**A.** 1.28

**Q.** And the solubility thermodynamic at 24 h ([3]; distilled water (Aqua dest.), read-out: Thermodynamic solubility)?
**A.** 67 µg/mL (≈ 150 µM)

**Q.** And the solubility thermodynamic at 24 h ([3]; fassgf or other biorelevant, thermodynamic from solid, pH 1.6 FaSSGF, read-out: Thermodynamic solubility)?
**A.** 33.2 µg/mL (≈ 74.4 µM)

**Q.** And the solubility thermodynamic at 24 h ([3]; simulated gastric fluid (SGF), simulated gastric fluid, thermodynamic from solid, pH 1.2 SGF, read-out: Thermodynamic solubility (intrinsic solubility))?
**A.** 11.6 µg/mL (≈ 26.1 µM)

**Q.** What about the solubility thermodynamic at 24 h ([3]; simulated intestinal fluid (SIF), fassgf or other biorelevant, thermodynamic from solid, pH 6.8 SIF, read-out: Thermodynamic solubility) of the same compound?
**A.** 10500 µg/mL (≈ 23500 µM)

**Q.** And the solubility thermodynamic at 24 h ([3]; thermodynamic from solid, pH 6.5 FaSSIF, read-out: Thermodynamic solubility)?
**A.** 8110 µg/mL (≈ 18200 µM)

**Q.** What about the “stability in alkaline solution (decomposition)” value ([4]; NMR investigations, without antioxidant) of the same compound?
**A.** rapidly decomposes above pH 9

**Q.** What about the “stability in alkaline solution (oxidation)” value ([4]; in the presence of a large excess of ascorbic acid) of the same compound?
**A.** rapid oxidation of baicalin above pH 13

**Q.** And the pKa2 [5, 10]?
**A.** 7.6

**Q.** What about the pKa3 [5, 10] of the same compound?
**A.** 10.1

**Q.** What about the pKa1 ([5]; earlier investigation) of the same compound?
**A.** 5.05

**Q.** What about the “log P” value [6] of the same compound?
**A.** 1.27

**Q.** And the water solubility [7]?
**A.** 0.054 mg/mL (≈ 121 µM)

**Q.** What about the absolute bioavailability [8] of the same compound?
**A.** 2.2 ± 0.2%
